In paper PMC9841589, “Identification of 2-Aminoacyl-1,3,4-thiadiazoles as Prostaglandin E2 and Leukotriene Biosynthesis Inhibitors” (ACS Medicinal Chemistry Letters, 2022):

Assays:
COX-1 = biological target: T1, COX-1 (Ovis aries, UniProt P05979); assay: Cell-free COXs activity assay, COX-1; format: biochemical, ovine; conditions: percentage of uninhibited control (100%), n = 3, n.i.: no inhibitory activity observed, read-out: COX-1 residual activity (%)
T1 sequence (P05979 25-600): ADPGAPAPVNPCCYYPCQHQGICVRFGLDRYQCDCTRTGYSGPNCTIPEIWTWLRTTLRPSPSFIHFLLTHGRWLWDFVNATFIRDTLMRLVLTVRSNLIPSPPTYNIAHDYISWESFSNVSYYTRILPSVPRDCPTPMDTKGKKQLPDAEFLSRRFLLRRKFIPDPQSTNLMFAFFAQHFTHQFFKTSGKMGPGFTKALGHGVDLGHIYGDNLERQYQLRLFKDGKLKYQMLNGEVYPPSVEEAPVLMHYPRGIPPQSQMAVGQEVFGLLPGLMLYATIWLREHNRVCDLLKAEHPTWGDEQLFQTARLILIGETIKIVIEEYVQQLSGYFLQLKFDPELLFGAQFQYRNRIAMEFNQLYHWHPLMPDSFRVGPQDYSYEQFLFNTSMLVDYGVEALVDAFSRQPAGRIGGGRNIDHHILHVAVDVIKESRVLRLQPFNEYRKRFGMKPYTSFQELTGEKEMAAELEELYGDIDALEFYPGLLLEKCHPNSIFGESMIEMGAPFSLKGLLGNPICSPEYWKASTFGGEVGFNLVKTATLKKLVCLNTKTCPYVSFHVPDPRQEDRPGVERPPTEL
Procedure: Cell-free COXs activity assay
Isolated COX-1 (ovine) and COX-2 (human) were used for the evaluation of the activity of test compounds 3, 6, 7, and 9 on cyclooxygenases. COXs were diluted using Tris buffer (100 mM, pH = […]
8) plus 5 mM glutathione, 100 µM EDTA and 5 µM hemoglobin) to a final concentration of 50 U/mL for COX-1 and 20 U/mL for COX-2, and pre-incubated with test compounds 3, 6, 7, and 9 (10 µM) or vehicle (0.1% DMSO) over 5 min at rt. After 1 min at 37 °C, reactions were started after addition of arachidonic acid to a final concentration of 5 µM for COX-1 and 2 µM for COX-2. After 5 min at 37 °C, 1 mL of ice-cold methanol was added for stopping the reactions on ice. Then, PGB 1 as internal standard and 530 µl PBS plus HCl were added, and solid-phase extraction was performed as reported before.4-6, 17-19 COXs product formation (12-HHT) was determined using RP-HPLC. 4-6, 17-19 Indomethacin (10 µM) and celecoxib (5 µM) were used as reference drugs.
Expression, purification and activity assay of human recombinant sEH
Human recombinant sEH was expressed in Sf9 cells and was infected using a baculovirus, provided by Dr. B. Hammock, University of California, Davis, CA. After 72 hours, cells were pelleted and sonicated (3 × 10 sec) at 4 °C in lysis buffer (50 mM NaHPO 4, pH = 8, 300 mM NaCl, 10% glycerol, 1 mM EDTA, 1 mM phenylmethanesulfonyl fluoride, 10 µg/mL of leupeptin, and 60 µg/mL of soybean trypsin inhibitor). Lysates were centrifuged over 60 min at 4 °C (100,000 × g), and supernatants were collected and submitted to a benzylthio-sepharose-affinity chromatography for sEH purification by elution with 4-fluorochalcone oxide in PBS plus 1 mM DTT and 1 mM EDTA.720 […]
DMSO) for 15 min at rt. 50 µM 3-phenyl-cyano(6-methoxy-2-naphthalenyl)methyl ester-2-oxiraneacetic acid (PHOME), a non-fluorescent compound, was added for starting the reaction.
PHOME is enzymatically converted into a fluorescent compound, 6-methoxy-naphtaldehyde, detectable by using a spectrofluorometer setting λ em = 465 nm, λ ex = 330 nm. After 60 min, ZnSO 4

[1] = system: PGE2 production in IL-1β-stimulated A549 cells; assay: Inhibition of PGE2 production in IL-1β-stimulated A549 cells; format: cell-based, human; conditions: A549, IL-1β 10 ng/mL, 5 and 10 μM, 24 h, ELISA
Procedure: Figure 3 (A) A549 cells in conditioned medium (1% FBS and 10 ng/mL IL-1β) were incubated for 24 h with 5 and 10 μM of compound 3, 6, 7, and 9. PGE2 released into the medium was quantified using a specific ELISA. Control cells were stimulated with IL-1β, treated with vehicle (DMSO), and expressed as mean ± SEM (pg/mL), n = 2. (B) A549 cell line was used to perform a MTT assay. A549 were treated with 3, 6, 7, and 9 (test compounds, 10 μM), staurosporine (1 μM, positive control), or vehicle (0.1% DMSO) for 48 h. (C) Human monocytes were used to perform a MTT assay. Cells were treated with 3, 6, 7, and 9 (test compounds, 10 μM), Triton X-100 (1%, positive control), or vehicle (0.5% DMSO) for 24 h. Data are expressed as a percentage of control (100%), means, SEM, n = 3.
Carslbad, CA, USA), in 5% CO2 humid atmosphere. The cells were subcultured every 2 days and were tested for Mycoplasma using PCR analysis.Inhibition of PGE2 production in cells A549 cells were plated at 10.000 cells/well in DMEM with 10% FBS-medium in a 96-well plate; after overnight incubation, the cells were treated with 5 and 10 µM of 3, 6, 7, 9 compounds in DMEM 1%FBS and IL-1β (10 ng/ml) to upregulate PG synthase expression.
After 24 h, the amount of PGE2 released in the supernatant was evaluated by a commercially available enzyme immunoassay kit (Prostaglandin E2 EIA kit Monoclonal, Cayman Chemical), and at the same time was evaluated cell viability by MTT using (3-4,5-[…])-2,5-diphenyl tetrazolium bromide reagent (Sigma-Aldrich). Following the treatment, 20 µL of MTT (5 mg/mL in PBS) was added, and the cells were incubated for additional 3 h at 37°C. […]
The absorbance was measured at 570 nm with a Multiskan™ GO Microplate Spectrophotometer (Thermo Fisher Scientific, USA). […]
MTT (5 mg/mL) was added, and after 1 h (37 °C, 5% CO 2) the medium was replaced with DMSO (100 µL per well). Finally, formazan formation was detected by the measurement of absorbance at […]
Acute cytotoxicity of compounds 3, 6, 7, 9 was analyzed on human monocytes. […]

SMILES | remaining activity at 10 µM (COX-1) | PGE2 released into the medium [1]
O=C(Nc1nnc(-c2ccc(-c3cccc(O)c3)cc2)s1)c1ccccc1Br [compound 3] | 104% | 
Nc1ccccc1-c1ccc(-c2nnc(NC(=O)c3c(Cl)ccnc3Cl)s2)cc1 [compound 9] | 107% | able to suppress the biosynthesis of PGE2 in a concentration-dependent manner
Nc1ccccc1-c1ccc(-c2nnc(NC(=O)c3ccccc3Br)s2)cc1 [compound 7] | 98.1% | able to suppress the biosynthesis of PGE2 in a concentration-dependent manner
Cc1cc(C(=O)Nc2nnc(-c3ccc(-c4ccccc4N)cc3)s2)cc(Cl)n1 [compound 6] | 82.3% | able to suppress the biosynthesis of PGE2 in a concentration-dependent manner
